Results reported in patent publication US12661362B2, “Methods for the prevention and treatment of hearing loss” (Ting Therapeutics LLC, priority 2020, dated 2026).

What was measured:
[1] = system: FVB/NJ mice; assay: Safety monitoring of drugs IP in FVB/NJ mice, with or without Cisplatin; type: in vivo, mouse; settings: for weight loss, pain and distress: Niclosamide 10, Ingenol 0.3, Elesclomol 5 mg/kg/day IP, 4 consecutive days
Method: To investigate the drugs' effects on mammalian auditory function in vivo, we first treated 5-7 weeks old FVB/NJ mice with […] drug candidates: Niclosamide (10 mg/kg/day), Ingenol (0.3 mg/kg/day), Elesclomol (5 mg/kg/day), for 4 consecutive days (IP) to monitor safety of the drugs. All tested doses were determined based on previous published data showing maximum non-toxic dose through intraperitoneal (IP) injection.
Baseline auditory brainstem response (ABR) were measured on 16 mice divided in 3 groups receiving Ingenol, Elesclomol, and Niclosamide. The mice received the drug doses described above, then on day 2 of drug injection mice also received 30 mg/kg Cisplatin (IP; 4 mice per group).

[2] = system: HEI-OC1 cells; assay: Caspase-Glo 3/7 assay in HEI-OC1 cells treated with Cisplatin; type: cell-based, mouse; settings: Cisplatin 50 μM; for caspase activity: at a dosage of ~40 μM
Method: Now referring to FIG. 3A, and FIGS. 3D-3E, compounds protect from cisplatin toxicity in the mouse inner ear cell line. House Ear Institute-Organ of Corti 1 (HEI-OC1) cells (House Research Institute) were maintained in high-glucose Dulbecco's modified Eagle medium supplemented with 10% fetal bovine serum (Life Technologies, USA) at 33° C. and 10% CO2 as previously described (Kalinec et al., 2003). Cells were seeded at 8,000 cells/well in 96 well plates and left to attach overnight. Now referring to FIG. 3A, For the drug screening, HEI-OC1 cells were pretreated with 30 drug candidates at concentrations ranging from 2 nM to 40 μM one hour before receiving cisplatin. The cisplatin dose (50 μM) was based on our previously published dose response curve. The cells were co-incubated with cisplatin and drug candidates for an additional 19 hours prior to Caspase-Glo 3/7 assay (Promega, Madison, WI) as previously shown. Additionally, […] kenpaullone-treated cells were used as positive controls to validate our results. The DMSO concentration in drug preparation was adjusted to 0.1% v/v and it was verified that 0.5% DMSO had no effect on the cell death kinetics (Hall et al., 2014). Results of the assay were run in triplicate and normalized to cisplatin-only and media-only controls. The percent caspase activity was used to determine the relative protective effect of each compound. The luminescence detection representing caspase activity in each well was obtained using a Cytation Hybrid Multi-Mode Reader (Biotek, Winooski, VT, USA). The percent protection of the cells was calculated using caspase 3/7 readouts and the following formula: […]
In the following examples, Niclosamide, 5-chloro-N-(2-chloro-4-nitrophenyl)-2-hydroxy-benzamide, with a ≥95% purity was used for all experiments (Cayman Chemical, USA).

[3] = chemotherapy; cited from earlier work
[4] = system: zebrafish neuromast HCs; assay: Niclosamide/ezetimibe combination hair cell protection in Cisplatin-treated zebrafish (Loewe synergy); type: in vivo; settings: 1.48 μM, cisplatin 300 μM
Method: Now referring to FIGS. 6A-6B, 5 dpf zebrafish were either incubated with vehicle (DMSO), cisplatin alone at 300 μM concentration, cisplatin and ezetimibe (0.002 μM to 13.3 μM), cisplatin and niclosamide (0.02 nM to 18.3 nM), or cisplatin and combination ezetimibe/niclosamide. After 6 hours, animals were transferred to fresh water for 1 hour and then sacrificed and processed for immunohistochemistry and HC count as described above. To further elucidate whether Niclosamide, synergizes with Nrf2 activators to protect zebrafish HCs from Cisplatin damage, we tested the extent of HC damage in presence of Niclosamide and a Nrf2 activator, ezetimibe.
A three-dimensional contour plot (A) showing dose response of neuromast hair cell protection in zebrafish treated with varying concentrations of niclosamide and ezetimibe mapped to synergy distribution. […] Other dose combinations showing synergy are shown in dark blue boxes. Dose combinations with scores of 0 and 1 show additive effect. *P<5×10−2; **P<10−3, ***P<10−4 versus control fish, One-sample t-test run by the Combenefit software44. Data is shown as mean±standard deviation.
Zebrafish were treated with combinations of Niclosamide (ranging from 0.02-18.3 nM) and EZ (ranging from 0.0183-13.3 μM).

[5] = system: zebrafish neuromast HCs; assay: Zebrafish lateral-line neuromast hair cell protection against Cisplatin; type: in vivo, Danio rerio; settings: doses of 0.002, 0.0183, 0.165 and 1.48 μM; Cisplatin 4 hours
Method: Danio rerio experimental larvae were obtained by pair mating of adult fish maintained at Creighton University by standard methods approved by the Institutional Animal Care and Use Committee. […] We used Tg(pou4f3:mGFP) expressing a membrane bound GFP in HCs. Experimental fish were maintained at 28.5° C. in E3 media (5 mM NaCl, 0.17 mM KCl, 0.33 mM CaCl2) and […], pH 7.2). Animals were cryoanaesthetized after drug treatment and prior to fixation. The neuromasts inspected, S03 and 01-2, were part of the cranial system and included the otic, middle, and opercular neuromasts.
Subsequently, animals were transferred to E3 water for 5 hours and fixed in 4% paraformaldehyde (PFA) overnight (26). Neuromast HCs were immunolabeled with anti-otoferlin (HCS-1, DSHB) and anti-GFP (NB100-1614, Novus Biologicals). These two markers were used to detect and count neuromast HCs to reduce the chances of missing some of the HCs after the treatment since we previously noticed that incubation with the compounds can affect GFP expression more difficult to detect under a fluorescence microscope. Otic, middle, and opercular neuromasts were identified, and HCs at S03 (supraorbital line neuromast) and 01-2 (Otic line neuromasts) were manually counted using a Zeiss AxioSkop 2 fluorescence microscope with a 40× oil objective. Compounds were then evaluated on efficiency and potency, with the top-rated compounds showing high protection at lower concentrations.

CN(NC(=O)CC(=O)NN(C)C(=S)c1ccccc1)C(=S)c1ccccc1 [Elesclomol]
weight loss, pain and distress [1]: None of the mice showed reduced weight loss or signs of pain and distress | caspase activity [2]: 20% | caspase-3/7 activity relative to control cells ([2]; dose of 40 μM): reduce caspase activity to comparable levels as control cells

N.N.[Cl][Pt][Cl] [Cisplatin]
treated cancer patients with permanent hearing loss [3]: 40-60% | weight loss ([1]; Cisplatin alone, 30 mg/kg IP): 10-15%

O=C1[C@H](CC[C@H](O)c2ccc(F)cc2)[C@@H](c2ccc(O)cc2)N1c1ccc(F)cc1 [Ezetimibe]
HC per neuromast counts, compound alone [4]: higher HC per neuromast counts

CC1=C[C@]23C(=O)[C@@H](C=C(CO)[C@@H](O)[C@]2(O)[C@H]1O)[C@H]1[C@@H](C[C@H]3C)C1(C)C [Ingenol]
weight loss, pain and distress [1]: None of the mice showed reduced weight loss or signs of pain and distress | IC50 ([2]; Mus musculus, HEI-OC1, HEI-OC1 cells, read-out: calculated IC50 (percent protection from caspase 3/7 readout)): 1.54 µM | caspase activity [2]: 30% | protection against CIHL in zebrafish [5]: showed protection against CIHL
